{
  "source": "patent US8758769B2",
  "about": "“Composition for preventing and treating acetaminophen inducing liver injury comprising the protein extract from Porphyra yezoensis” (Pukyong National University Industry Academic Cooperation …, priority 2006, dated 2014)",
  "key": {"GOT and GPT in the serum": {"system": "GOT and GPT in the serum", "test": "GOT and GPT in serum", "format": "in vivo, rat", "conditions": "rats, AAP 700 mg/kg, 24 hours", "method": "GOT and GPT in the serum as liver function indicators are enzymes which reflect the change and necrosis of the liver cell and spilled in great quantities in the blood when damaging the liver tissue. GOT/GPT in the serum are measured by using a kit for measuring GOT (Glutamic oxaloacetic transaminase) and GPT (Glutamic pyruvic transaminase) activity measuring serum transaminase (Shinyang Chemistry, Republic of Korea) manufactured by Retiman-Frankle's manner through a spectrum photometer (Ultrospec 2001 pro. amersham phamasia biotech, United Kingdom) at 505 nm and then the result is shown in FIG. 4."}, "[1]": {"system": "GSH (Glutathione) in the liver tissue", "test": "Glutathione content in the liver tissue", "format": "in vivo, rat", "conditions": "rats, AAP 700 mg/kg; compared with the control group of 100%", "method": "Accordingly, the GSH activity in the liver tissue is measured. For this, the liver tissue is homogenized by 5% of sulfosalicylic acid, then frozen by the liquid nitrogen and thereafter a thaw process is executed repeatedly by twice in a cistern of 37° C. Thereafter, the defrosted liver tissue is left for 5 minutes At 4° C. and centrifuged at 4° C., 1,000×g, for 10 minutes, so that the upper solution is obtained. The upper solution and the standard solution within the GSH assay kit are divided into a 96-well plate, respectively, thereafter a working mixture is added to the 96-well plate, and a reaction is progressed at the room temperature for 5 minutes. After 5 minutes, NADPH is inserted into the above plate and mixed through a pipet and then the absorbance is measured by the interval of 5 minutes at 412 nm."}, "HepG2 liver cell [2]": {"system": "HepG2 liver cell", "test": "Proliferation of HepG2 liver cell by AAP treatment (MTS/MTT)", "format": "cell-based", "conditions": "AAP in serum free medium, 24 hours and 48 hours, FIG. 7", "method": "The used HepG2 liver cell is distributed by ATCC (American Type Culture Center).\nAntibiotics (penicillin/streptomycin) of 100 units/ml is added to an MEM medium and then filtrated by a filter of 0.22[…]. Before the culture, FBS (Fetal bovine serum) is added, thereby obtaining the final concentration of 10%. The cell is cultured in a 5% CO2 incubator at 37° C. During the culture of the cell, the medium is replaced by twice a week and when the medium is a confluent state, the medium is washed by PBS (Phosphate Buffered Saline). Thereafter, the attached cells are separated by 0.05% of trypsin solution and centrifuged, then each cell is mixed, dispersed properly by using a pipet and divided identically.\nTo examine the cell proliferation and the toxicity, the HepG2 liver cell is controlled by concentration of 5×10^4 cells/ml, and divided into 96-well microplates (palcon, USA) by 100[…] per a well and cultured. After 24 hours, a medium is replaced with a serum free medium and then cultured again for 24 hours. A protein sample is dissolved into the serum free medium, then diluted until 0.01% concentration. The dilution solution by each concentration is added to each cell line and cultured for 24 hours at the 5% CO2 incubator at 37° C. […] Thereafter, the absorbance at 490 nm is measured by using an automatic ELIZA reader and the cell survival ratio is calculated by a calculation formula 1. […]"}, "caspase-3": {"system": "caspase-3", "test": "Caspase-3 activity in the liver tissue (DEVD-pNA substrate)", "format": "in vivo, rat", "conditions": "rats, AAP 700 mg/kg; control group 100%", "method": "Accordingly, to confirm the cell apoptosis when generating the liver injury by AAP, the activity of the caspase-3 is measured. For this, the liver tissue is homogenized by the lysis buffer (25 mM HEPES, pH 7.5, 5 mM EDTA, 2 mM DTT, 0.1% CHAPS) containing the protease inhibitor and centrifuged by 14,000×g at 4° C. The protein concentration of the obtained upper solution is measured by a BCA protein assay kit. Thereafter, 80[…] of protein is inserted into the 96-well, then the DEVD-pNA substrate is inserted, thereafter, a reaction is progressed for 4 hours at 37° C. The absorbance is measured at 405 nm."}, "HepG2 liver cell [3]": {"system": "HepG2 liver cell", "test": "LDH activity, toxicity of HepG2 liver cell by AAP treatment", "format": "cell-based", "conditions": "HepG2, AAP 10, 20 and 40 mM", "method": "To examine the toxicity of the liver cell by the AAP treatment, the activity of LDH is measured. That is, 100[…] per a well with the concentration of 2×10^4 cells/ml is divided into 96-well microplates (palcon, USA) and cultured. After 24 hours, a medium is replaced with an MEM medium including 1% FBS, then cultured again for 24 hours, and thereafter treated by an assay medium of 100[…] and AAP 100[…] (10, 20 and 40 mM). The obtained upper solution of 100[…] is moved into a new 96-well microplate, then 100[…] of the reaction mixture (solution I 250[…]+solution II 11.25[…]) is added to the new 96-well microplate. Thereafter, at the state that the light is intercepted by foil, a reaction is progressed for 30 minutes at 15˜25° C. Thereafter, the absorbance at 490 nm is measured by using an automatic ELIZA reader."}},
  "data": [
    {"smiles": "CC(=O)Nc1ccc(O)cc1", "note": "[AAP, Acetaminophen]", "values": [
      {"measurement": "GPT in serum", "setting": "GOT and GPT in the serum; control group 28.83±7.9", "result": "44.83±11.7", "unit": "karmen"},
      {"measurement": "GOT in serum", "setting": "GOT and GPT in the serum; control group 158.97±13.4", "result": "187.95±20.7", "unit": "karmen"},
      {"measurement": "GSH content in the liver tissue", "setting": "[1]", "result": "85.39±4.81", "unit": "%"},
      {"measurement": "Proliferation of the HepG2 liver cell", "setting": "HepG2 liver cell [2]", "result": "inhibited according to increase of the AAP concentration and the culture time"},
      {"measurement": "Activity of caspase-3 in the liver tissue", "setting": "caspase-3", "result": "143.38±10.25", "unit": "%"},
      {"measurement": "Activity of LDH (degree of liver cell injury)", "setting": "HepG2 liver cell [3]", "result": "increased in proportion to the AAP concentration"}
    ]}
  ]
}
